{"source": "patent US4250259A", "about": "“Microbiological production of ketones from C3 -C6 secondary alcohols” (priority 1979, dated 1981)", "key": {"[1]": {"test_system": "cell extracts (NAD+-dependent secondary alcohol dehydrogenase)", "assay": "sec-alcohols to methyl ketones by cell extracts of yeasts, gas chromatography", "type": "biochemical, Torulopsis sp. strain A1 NRRL-Y-11,419", "details": "grown on methanol"}, "[2]": {"test_system": "cell extracts (NAD+-dependent secondary alcohol dehydrogenase)", "assay": "sec-alcohols to methyl ketones by cell extracts of yeasts, gas chromatography", "type": "biochemical, Hansenula polymorpha ATCC 26,012", "details": "grown on methanol"}, "[3]": {"test_system": "Kloeckera sp. Strain A2 (NRRLY-11,420)", "assay": "sec-alcohols to ketones by cell suspensions of yeasts", "type": "cell-based"}, "[4]": {"test_system": "purified secondary alcohol dehydrogenase", "assay": "substrate specificity, electron acceptor and stoichiometry of purified yeast SADH"}, "[5]": {"test_system": "Candida utilis ATCC 26387", "assay": "sec-alcohols to ketones by cell suspensions of yeasts", "type": "cell-based"}, "[6]": {"test_system": "secondary alcohol dehydrogenase, crude extracts", "details": "2-butanol as a substrate; extracts of methanol-grown yeast", "method": "Cell suspensions (2 g. wet weight) of packed cells in 10 ml. of 50 mM sodium phosphate buffer, pH 7.0 at 4° C. were disrupted by sonication with a Megason ultrasonic disintegration. The sonicated cell suspensions were centrifuged for 15 minutes at 30,000×g. The supernantant liquid was termed the crude extracts.\nSecondary alcohol dehydrogenase activity was measured spectrophotometrically at 340 nm with a NAD^+ as an electron acceptor. The reaction mixture, in a total 3.0 ml., contained 50 mM phosphate buffer, pH 8.0, 5 μmoles NAD^+, crude extracts, and substrate. The reactions were started by addition of 100 μl of 0.1 M substrate and the rate of NAD^+ reduction was measured. Protein concentration was determined by the method of Lowry et al.\nOxidation of secondary alcohols were also estimated spectrophotometrically by measuring the reduction of NAD^+. […] NRRL Y-11,328 Torulopsis sp."}, "[7]": {"test_system": "Torulopsis sp. Strain A1 (NRRLY-11,419)", "assay": "sec-alcohols to ketones by cell suspensions of yeasts", "type": "cell-based"}, "[8]": {"test_system": "Methylomonas albus BG8 (NRRL B-11,200)", "assay": "sec-alcohols to ketones by resting cell suspensions", "type": "cell-based", "method": "(§1) The pH of the nutrient medium was adjusted to 7.0 by the addition of acid or base and 50 ml. samples of the nutrient medium were charged into a plurality of 300 ml. shaker flasks. The shaker flasks were inoculated with an inoculating loop of cells from an agar plate containing homogeneous colonies of the microorganisms on the plate (the purity of the isolates was confirmed by microscopic examination). The isolates had been maintained on methanol (0.4% V/V) agar plates or on agar plates under an atmosphere of methane and air having a 1:1 V/V gas ratio which had been transferred every two weeks. For growth on methanol, the medium was supplemented with 0.4% methanol. For growth on methane, the gaseous phase of the inoculated flasks was replaced with a gas mixture comprised of methane and air having a ratio of 1:1 on a V/V basis. The inoculated flasks were sealed air-tight and were incubated on a rotary shaker of orbital radius 2.5 cm. at 250 rpm and at 30° C. for two days until turbidity in the medium had developed. The cells were harvested by centrifugation at 10,000×g. at 4° C. for 30 minutes. The cell pellet was washed twice with a 0.05 M phosphate buffer at a pH of 7.0 (containing 0.02 M MgCl2). The washed cells were then suspended in a 0.05 M phosphate buffer at pH 7.0.\n(§2) A 0.5 ml. sample of each washed cell suspension (2 mg. cells) was put into 10 ml. vials at 4° C. which were sealed with a rubber cap. The gaseous phase of the vials was removed with vacuum and then was replaced with a gas mixture of the substrate reactant (i.e., alkane or secondary alcohol) and oxygen at a 1:1 V/V ratio. (In the case of a liquid substrate, i.e., secondary alcohol, 10 μl of the substrate was put in the 10 ml. vials). […] Samples of product (1-3 μl) were withdrawn periodically with a microsyringe and the products were analyzed by gas chromatography (ionization flame detector column).\n(§3) The procedure in Example 1 was repeated wherein a plurality of the methane-utilizing methylotrophic microorganisms were each grown aerobically in a nutrient medium containing methane as the alcohol dehydrogenase enzyme inducer and as the major carbon and energy source for growth. The cells were harvested and washed as described in Example 1. The resting microbial cells of the induced methane-grown methane-utilizing methylotrophic microorganisms were then contacted with C3 -C6 secondary alcohols in a buffered solution by the procedure of Example 1.\n(§4) In this example, the procedure in Example 1 was repeated except that a plurality of methane-utilizing methylotrophic microorganisms were each aerobically grown in a methanol-containing nutrient medium instead of a methane-containing medium. The nutrients in the medium were the same as indicated in Example 1 except that 0.4% V/V methanol was used as the alcohol dehydrogenase inducer and major source of carbon and energy for growth. Following growth, the cells were harvested and washed as described in Example 1.\n(§5) The resting cells of the induced methanol-grown methylotrophic microorganisms were then contacted with secondary alcohols in a buffered solution by the procedure described in Example 1."}, "[9]": {"test_system": "Methylosinus sporium 5 (NRRL B-11,197)", "assay": "sec-alcohols to ketones by resting cell suspensions", "type": "cell-based", "method": "as §1, §2, §3, §4, §5"}, "[10]": {"test_system": "Pseudomonas sp. ATCC 21438 (Facultative)", "assay": "sec-alcohols to ketones by resting cell suspensions", "type": "cell-based", "method": "as §1, §2\nThe procedure in Example 1 was repeated except that a plurality of methanol-utilizing methylotrophic microorganisms were each aerobically grown in a methanol-containing nutrient medium instead of a methane-containing medium. The nutrients in the medium were the same as indicated in Example 1 except that 0.4% V/V methanol was used as the alcohol dehydrogenase inducer and as the major carbon and energy source for growth. The cells were harvested and washed as described in Example 1. The resting microbial cells of the induced methanol-grown methanol-utilizing methylotrophic microorganisms were then contacted with C3 -C6 secondary alcohols in a buffered solution by the procedure of Example 1.\nThe procedure in Example 1 was repeated except that the methylotrophic microorganisms were each aerobically grown in an alcohol dehydrogenase-inducing growth medium containing methylamine or methyl formate as the alcohol dehydrogenase enzyme inducer and growth substrate instead of methane. The nutrients in the medium were the same as indicated in Example 1 except that 0.4% V/V of the alcohol dehydrogenase-inducer growth substrate was used as the major carbon and energy source. The cells were harvested and washed as described in Example 1. The resting microbial cells were then contacted with C3 -C6 secondary alcohols in a buffered solution by the conversion procedure of Example 1."}}, "data": [{"molecule": "CCC(C)O", "note": "(stereo not drawn) [2-Butanol, 2-butanol]", "values": [{"measurement": "Conversion Rate, sec-alcohol to methyl ketone", "setting": "[1]", "value": 4.9, "unit": "μmoles/hr/mg Protein"}, {"measurement": "Conversion Rate, sec-alcohol to methyl ketone", "setting": "[2]", "value": 5.2, "unit": "μmoles/hr/mg Protein"}, {"measurement": "Conversion Rate, sec-alcohol to corresponding ketone", "setting": "[3]; Growth Substrate Ethanol", "value": "5.7 μmoles/hr/mg of protein"}, {"measurement": "Conversion Rate, sec-alcohol to corresponding ketone", "setting": "[3]; Growth Substrate Methanol", "value": "5.9 μmoles/hr/mg of protein"}, {"measurement": "Conversion Rate, sec-alcohol to corresponding ketone", "setting": "[3]; Growth Substrate Methylamine", "value": "5.4 μmoles/hr/mg of protein"}, {"measurement": "Conversion Rate, sec-alcohol to corresponding ketone", "setting": "[3]; Growth Substrate Methylformate", "value": "5.9 μmoles/hr/mg of protein"}, {"measurement": "Conversion Rate, sec-alcohol to corresponding ketone", "setting": "[3]; Growth Substrate Propylamine", "value": "4.2 μmoles/hr/mg of protein"}, {"measurement": "oxidation by the purified yeast secondary alcohol dehydrogenase", "setting": "[4]; examined spectrophotometrically", "value": "catalyzed the oxidation"}, {"measurement": "Product Formed", "setting": "[4]; stoichiometry, Acetone from Isopropanol, 2-Butanone from 2-Butanol, gas chromatography", "value": 5.7, "unit": "µmol"}, {"measurement": "Conversion Rate, sec-alcohol to corresponding ketone", "setting": "[5]; Growth Substrate Ethanol", "value": "5.2 μmoles/hr/mg of protein"}, {"measurement": "Conversion Rate, sec-alcohol to corresponding ketone", "setting": "[5]; Growth Substrate Methanol", "value": "6.8 μmoles/hr/mg of protein"}, {"measurement": "Conversion Rate, sec-alcohol to corresponding ketone", "setting": "[5]; Growth Substrate Methylamine", "value": "5.0 μmoles/hr/mg of protein"}, {"measurement": "Conversion Rate, sec-alcohol to corresponding ketone", "setting": "[5]; Growth Substrate Methylformate", "value": "6.2 μmoles/hr/mg of protein"}, {"measurement": "Conversion Rate, sec-alcohol to corresponding ketone", "setting": "[5]; Growth Substrate Propylamine", "value": "4.2 μmoles/hr/mg of protein"}, {"measurement": "specific activities", "setting": "[6]", "value": "90 nmoles NAD^+ reduced per min. per mg. protein"}, {"measurement": "Conversion Rate, sec-alcohol to corresponding ketone", "setting": "[7]; Growth Substrate Ethanol", "value": "4.7 μmoles/hr/mg of protein"}, {"measurement": "Conversion Rate, sec-alcohol to corresponding ketone", "setting": "[7]; Growth Substrate Methanol", "value": "4.9 μmoles/hr/mg of protein"}, {"measurement": "Conversion Rate, sec-alcohol to corresponding ketone", "setting": "[7]; Growth Substrate Methylamine", "value": "4.5 μmoles/hr/mg of protein"}, {"measurement": "Conversion Rate, sec-alcohol to corresponding ketone", "setting": "[7]; Growth Substrate Methylformate", "value": "4.9 μmoles/hr/mg of protein"}, {"measurement": "Conversion Rate, sec-alcohol to corresponding ketone", "setting": "[7]; Growth Substrate Propylamine", "value": "3.8 μmoles/hr/mg of protein"}, {"measurement": "Conversion Rates, sec-alcohol to corresponding ketone", "setting": "[8]; cells grown on methane", "value": 3.5, "unit": "μmoles/hr/mg protein"}, {"measurement": "Conversion Rates, sec-alcohol to corresponding ketone", "setting": "[8]; cells grown on methanol", "value": 3.0, "unit": "μn moles/hr/mg protein"}, {"measurement": "Conversion Rates, sec-alcohol to corresponding ketone", "setting": "[9]; cells grown on methane", "value": 3.0, "unit": "μmoles/hr/mg protein"}, {"measurement": "Conversion Rates, sec-alcohol to corresponding ketone", "setting": "[9]; cells grown on methanol", "value": 3.5, "unit": "μn moles/hr/mg protein"}, {"measurement": "Conversion Rates, sec-alcohol to corresponding ketone", "setting": "[10]; methanol-grown cells", "value": 3.2, "unit": "μmoles/hr/mg protein"}, {"measurement": "Conversion Rates, sec-alcohol to corresponding ketone", "setting": "[10]; methyl formate-grown cells", "value": 3.2, "unit": "μmoles/hr/mg protein"}, {"measurement": "Conversion Rates, sec-alcohol to corresponding ketone", "setting": "[10]; methylamine-grown cells", "value": 2.1, "unit": "μmoles/hr/mg protein"}]}]}
